In ChEMBL document CHEMBL3430912, “GSK Tres Cantos Anti-Kinetoplastid Screening (TCAKS) Data”:

How the values were obtained:
Leishmania donovani [1] = experiment: (§1) GSK_TCAKS: pIC50 Leishmania donovani Imaging: Amastigotes/Macrophages. Assay plates (384-well) were prepared by adding 250nL of compound to each well. For single shot assay, the final compound concentration was 5 uM. […] Automated image analysis was performed with a script developed on Acapella High Content Imaging and Analysis Software (PerkinElmer). Output: Average number of amastigotes per macrophage cell were reported for each well.; format: functional, organism-based, Homo sapiens; settings: THP-1
Trypanosoma cruzi [2] = experiment: GSK_TCAKS: pIC50 Trypanosoma cruzi viability assay using beta-GAL activity. This assay was run at single shot at 5uM compound concentration per well. The biological reagents consisted of NIH-3T3 host cells and trypomastigotes parasitic cells; both cell types were set to a 3.3 * 10^5 cells/mL dilution in assay DMEM by means of a CASY cell counter device using a 60um capillary. 6 uL of the mixture were dispensed per well (about 1 * 10^3 host-cells and 1 * 10^3 parasites) with a Multidrop Combi dispenser. […] In all wells, the percentage of DMSO never exceeded 0.5%. Plates incubated for four days at 37C, 5% CO2. The substrate used for the assay fluorescence intensity (FLINT) readout was resorufin-beta-D-galactopiranoside (Sigma-Aldrich) at 5uM per well. It was diluted in PBS supplemented with the soft detergent Igepal (Fluka).; format: functional, organism-based, Mus musculus; settings: Tulahuen, NIH3T3
[3] = molecular target: Sterol 14-alpha demethylase (Trypanosoma cruzi (strain CL Brener), UniProt Q7Z1V1); experiment: GSK_TCAKS: pIC50 CYP51 from Trypanosoma cruzi.; format: functional
Leishmania donovani [4] = experiment: as §1, with “THP-1 Host Macrophages.” for “Amastigotes/Macrophages.”, “THP-1” for “Average number of amastigotes per macrophage”, “cell count” for “cell”; format: functional, organism-based, Homo sapiens
[5] = test system: Trypanosoma brucei brucei; experiment: GSK_TCAKS: pIC50 Trypanosoma brucei viability assay using fluorescence intensity. Assay plates (1536-well) were prepared by dispensing 25nL of compound solution per well using an Echo acoustic dispenser (Labcyte).; format: functional, organism-based; settings: Lister 427, 2 h
[6] = test system: Trypanosoma brucei brucei; experiment: GSK_TCAKS: pIC50 Trypanosoma brucei viability assay using luminiscence. Assay plates (1536-well) were prepared. T. brucei cultures were harvested and counted in a CASY cell counter. A parasite suspension was prepared at a final concentration of 5 * 10^4 cells/mL in complete HMI9 medium and 6uL was dispensed to all wells containing compounds using a Multidrop Combi dispenser. 6uL of HMI9 media with 0.4% DMSO were dispensed to control columns. Plates were incubated for 24 h at 37C, 5% CO2 then tempered for 10 min at room temperature. ATP content was quantified by adding 4 uL of CellTiter-Glo Reagent (Promega) according to the manufacturer's instructions. Luminescence was measured using a ViewLux.; format: functional, organism-based; settings: Lister 427, CASY
Trypanosoma cruzi [7] = experiment: (§2) GSK_TCAKS: pIC50 H2C9 Imaging: H9c2 Host Cardiomyocytes. […] Cells were then washed once with PBS before infection. T. cruzi trypomastigotes, collected at days 5 to 8 after infection from LLC-MK2 parasite infected cultures, were allowed to swim out for 4h at 37C from a centrifuged pellet (2,500 rpm/10 min/room temperature). Trypomastigotes were then collected and counted in a CASY Cell Counter. Trypomastigotes, in supplemented DMEM, were added to H9c2 cultures in a multiplicity of infection of 1 and incubated for 18 h. Cells were washed once with PBS before incubation of the infected H9c2 monolayer with trypsin (Life-Technologies) to detach cells from the flask. Cells were counted in a CASY Cell Counter using a 150 um capillary and their density set at 5 * 10^4 cells per mL in supplemented assay DMEM. Infected H9c2 were dispensed into 384-well poly-lysine coated assay plates at 50uL per well using a Multidrop Combi dispenser. After seeding them, the plates were incubated at 37C, 5% CO2 for 72h. Cultures were then fixed and stained by addition of 50 uL of a solution containing 8% formaldehyde and 4 uM DRAQ5 DNA dye (BioStatus, UK) per well. […] Five images were collected per well for reliable statistical analysis. Automated image analysis was performed with a script developed on Acapella High Content Imaging and Analysis Software (PerkinElmer). Output: Number of H9c2 Host Cardiomyocytes nuclei to determine drug-related cytotoxicity.; format: functional, organism-based, Rattus norvegicus; settings: H9c2, 4 h
Trypanosoma cruzi [8] = experiment: as §2, with “Trypanosoma cruzi” for “H2C9”, “Amastigotes/Cell.” for “H9c2 Host Cardiomyocytes.”, “number” for “Number”, “amastigotes per cell as infection level measurement.” for “H9c2 Host Cardiomyocytes nuclei to determine drug-related cytotoxicity.”; format: functional, organism-based, Rattus norvegicus; settings: H9c2, 4 h
[9] = GSK_TCAKS: pIC50 HepG2 human cell line viability assay using luminiscence. […] Seeding density was checked to ensure that new mono-layers were not more than 50% confluent at the time of harvesting. Cell suspension was added to 500 mL of the same medium at a final density of 1.2 * 10^5 cells/mL. This cell suspension was dispensed (25 uL, 3000 cells per well) into 384-well clear-bottom plates using a Multidrop Combi dispenser. Prior to addition of the cell suspension, the screening compounds (250 nL) were pre-dispensed into the plates with an Echo liquid handler. Plates were incubated for 48 h at 37C, 5% CO2. After incubation, plates equilibrated at room temperature for 30 min before proceeding to develop the luminescent signal. The signal developer, CellTiter-Glo Reagent, was allowed to equilibrate at room temperature for 30 min and added to the plates (25uL per well) using a Multidrop Combi dispenser. Plates were left for 10 min at room temperature for stabilization and then read using a ViewLux.; format: toxicity, cell-based
Leishmania donovani [10] = experiment: GSK_TCAKS: pIC50 Leishmania donovani viability assay using fluorescence intensity. Assay plates (1536-well) were prepared by adding 30nL per well of compound. For single shot assay, the final compound concentration was 5uM. […] Briefly, eGFP LdBOB axenic amastigotes were harvested, fixed and counted in a CASY cell counter (Roche-Applied Science). A final concentration of 1.5 * 10^5 cells per well were prepared in amastigote media containing 500 U/mL penicillin/streptomycin (Invitrogen) and 6uL was dispensed to each experimental well using a Multidrop Combi dispenser (Thermo Scientific). 6uL of assay media was dispensed to control columns used as reference for 100% compound response. Following incubation for 72 h at 37C, 5% CO2, 2 uL of resazurin was added to each well at a final concentration of 0.5 mM in phosphate buffered saline (PBS) with IGEPAL (Sigma-Aldrich), 0.05% (v/v).; format: functional, organism-based
Leishmania donovani [11] = experiment: as §1, with “Infected Macrophages.” for “Amastigotes/Macrophages.”, “Percent” for “Average number”, “infected” for “amastigotes per”, “cells” for “cell”; format: functional, organism-based, Homo sapiens; settings: THP-1
Trypanosoma cruzi [12] = experiment: as §2, with “Trypanosoma cruzi” for “H2C9”, “Infected Cells.” for “H9c2 Host Cardiomyocytes.”, “percentage” for “Number”, “infected cells per well as a second infection marker.” for “H9c2 Host Cardiomyocytes nuclei to determine drug-related cytotoxicity.”; format: functional, organism-based, Rattus norvegicus; settings: H9c2, 4 h

Sterol 14-alpha demethylase, sequence (Q7Z1V1 whole entry): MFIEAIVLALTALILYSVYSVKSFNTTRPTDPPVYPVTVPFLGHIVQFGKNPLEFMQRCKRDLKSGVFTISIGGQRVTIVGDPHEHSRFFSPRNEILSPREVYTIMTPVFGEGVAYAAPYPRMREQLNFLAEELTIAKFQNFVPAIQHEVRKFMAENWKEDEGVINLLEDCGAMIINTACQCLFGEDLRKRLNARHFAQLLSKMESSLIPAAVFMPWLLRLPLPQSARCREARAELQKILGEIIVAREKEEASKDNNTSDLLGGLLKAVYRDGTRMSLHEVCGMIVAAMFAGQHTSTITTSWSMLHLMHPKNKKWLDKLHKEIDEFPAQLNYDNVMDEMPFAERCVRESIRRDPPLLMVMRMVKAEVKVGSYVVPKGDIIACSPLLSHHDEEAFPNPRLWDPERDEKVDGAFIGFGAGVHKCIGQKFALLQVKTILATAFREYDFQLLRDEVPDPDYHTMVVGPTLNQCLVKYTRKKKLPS

| Compound | IC50 (Leishmania donovani [1]) [µM] | IC50 (Trypanosoma cruzi [2]) [µM] | IC50 [3] [µM] | IC50 (Leishmania donovani [4]) [µM] | IC50 [5] [µM] | IC50 [6] [µM] | IC50 (Trypanosoma cruzi [7]) [µM] | IC50 (Trypanosoma cruzi [8]) [µM] | IC50 at 48 h [9] [µM] | IC50 (Leishmania donovani [10]) [µM] | IC50 (Leishmania donovani [11]) [µM] | IC50 (Trypanosoma cruzi [12]) [µM] |
| --- | --- | --- | --- | --- | --- | --- | --- | --- | --- | --- | --- | --- |
| COc1cccc2sc(CN(C)C(=O)C3CNCCN3c3ccc(F)cc3)c(C)c12 (stereo not given) | 3.98 | 0.398 | 0.251 | 12.6 | 0.158 | 0.251 | 7.94 | 0.158 | 12.6 | 31.6 | 6.31 | 0.2 |
| CCCCCNC(=O)c1c[nH]c2ccc(S(=O)(=O)N(C)c3ccc(OCC)cc3)cc2c1=O | > 50.1 | 31.6 | 1.58 | > 50.1 | 0.316 | 0.251 | > 50.1 | > 50.1 | > 100 | > 50.1 | > 50.1 | > 50.1 |
| CCOc1ccc2nc(NC(=O)c3ccc([N+](=O)[O-])s3)sc2c1 | 5.01 | 1.78 | > 100 | > 50.1 | 1.26 | 2.51 | 10 | 1 | 31.6 | 2.51 | 6.31 | 1.26 |
| O=C(NCC(c1cccs1)N1CCOCC1)c1ccc([N+](=O)[O-])o1 (stereo not given) | 15.8 | 3.16 | 10 | 25.1 | 0.316 | 0.316 | 5.01 | 15.8 | 20 | 31.6 | 25.1 | 15.8 |
| CCN(CC)c1ncc(C(=O)c2ccc([N+](=O)[O-])o2)s1 | 10 | 3.98 | 39.8 | 6.31 | 0.1 | 0.398 | 5.01 | 7.94 | 15.8 | 5.01 | 10 | 12.6 |
